Measured values: patent US12233060B2, “Inhibitors of Ataxia-Telangiectasia Mutated and Rad3-related protein kinase (ATR) for use in methods of treating cancer” (THE INSTITUTE OF CANCER RESEARCH: ROYAL CANCER HOSPITAL, priority 2016, dated 2025)

What was measured:
[1] = system: SYO1 cells; test: FACS cell cycle and Caspase Glo apoptosis in SYO1 cells; assay type: cell-based, human
Description: FIG. 10. ATR inhibitors elicit replication fork stress in SS tumour cells. […] Error bars represent SEM from triplicate experiments. p values were derived from Student's t tests. B. Western blot illustrating PARP1 cleavage in SYO1 cells exposed to VX970 for 24 hours. C. Western blot illustrating H2AX phosphorylation (γH2AX) in SYO1 cells exposed to VX970 (0.1 μM). D. Confocal microspcopy images illustrating H2AX phosphorylation in SYO1 cells exposed to VX970 (0.1 μM, 24 hours). E. Bar chart depicting data from (D). Error bars represent SEM from 100 images. p values were derived from Student's t tests. F. Replication fork speeds in SYO1 cells exposed to 0.1 μM VX970 for two hours. p value was derived from a Student's t test. G. Replication fork speeds in HCT116 cells exposed to 0.1 μM VX970 for two hours in the presence and absence of ectopic expression of a SS18-SSX1 fusion protein. p values were derived from Student's t tests. Expression of SS18-SSX1 or exposure to VX970 reduced fork speed. Combined SS18-SSX1 expression and VX970 exposure enhanced the reduction in fork speed. H and I. FACS plots from SYO1 cells exposed to VX970.

[2] = system: HCT116 ARID1A−/− xenografts; test: In vivo efficacy, HCT116 ARID1A−/− subcutaneous xenografts; parameters: species or system mice
Description: FIG. 3. In vivo ARID1A/ATR synthetic lethality. A. Schematic of VX-970 therapy experiment in mice bearing established HCT116 ARID1A^+/+ and ARID1A^−/− xenografts. Cells were inoculated subcutaneously into nude mice and tumors allowed to establish for 10 days. Mice were then randomized to treatment regimens of either VX-970 (60 mg/kg, 4× weekly by oral gavage) or vehicle. Mice were then treated for a subsequent 40 days. Tumor volume was monitored twice weekly. B. Relative tumor volume plot from (A) showing efficacy of VX-970 and selectivity for ARID1A^−/− xenografts* p=0.024, ANOVA. C. Schematic of tumor incidence experiment in mice with non-established HCT116 ARID1A^+/+ and ARID1A^−/− xenografts. Mice were inoculated with cells as before, randomized and then treated with VX-970. VX-970 or vehicle treatment was initiated on the day of cell implantation. Tumor volume was monitored twice weekly and overall tumour incidence was assessed 40 days later. D. Bar chart of incidence 40 days after implantation of HCT116 ARID1A^+/+ and ARID1A^−/− cells. Each group contained 15 animals and fractions above bars indicate the number of animals in which a measurable xenograft formed. *p=0.027 Fisher's exact test. E and F. Tumor growth in experiment described in (C). *p=0.015 ANOVA. G. VX-970 dose response curves from TOV21G (ARID1A mutant) and RMG1 (ARID1A wildtype) cells. Cells were exposed to VX-970 for 5 days. […] PARP-1, cleaved PARP-1 (85 kDa fragment) and tubulin were detected by western blot. […] Caspase3/7 activity was assessed using Caspase-Glo and total cellular viability was estimated using CellTitre-Glo. Luminescence ratios for Caspase-Glo (i.e. apoptotic cells) and CellTitre-Glo (ie viable cells) was determined for each dose and normalized to DMSO treated samples. *Student's t-test, p<0.05. […]
In vivo efficacy studies were performed using HCT116 […], HCT116 ARID1A^−/− and TOV21G cells injected subcutaneously in the flank of female CD-1 Nude mice. […] Tumours were measured manually by calliper trice weekly and animals were sacrificed when tumours reached >15 mm in any direction.

CNCc1ccc(-c2cc(-c3nc(-c4ccc(S(=O)(=O)C(C)C)cc4)cnc3N)on2)cc1 [VX-970, 5-[4-(Isopropylsulfonyl)phenyl]-3-(3-{4-[(methylamino)methyl]phenyl}-1,2-oxazol-5-yl)-2-pyrazinamine]
sub G1 fraction ([1]; 0.1 μM): increase in the sub G1 fraction | cell cycle, S phase ([1]; SS tumour cells exposed to VX970 (0.1 μM)): arrest in S phase | apoptosis (Caspase Glo) ([1]; SYO1 cells): apoptosis, estimated by Caspase Glo, caused by exposure | growth of established ARID1A−/− xenografts ([2]; 60 mg/kg, 4x weekly oral gavage, 40 days): significantly inhibited the growth | growth of ARID1A−/− tumours under continued treatment ([2]; non-established xenograft experiment, p=0.015 ANOVA): dramatically slowed the growth | frequency of ARID1A−/− tumour formation ([2]; treatment from day of cell implantation, incidence 40 days later, 15 animals per group): 27%
